The source of these data is patent publication US20200253929A1, “TREATMENT OF EPILEPSY” (priority 2017, published 2020).

The test system of one assay is NMRI mice. The assay is described as follows: Mouse 6-Hz (44 mA) psychomotor seizure model. Type of assay: in vivo. The conditions noted are these: for mean seizure duration / mice protected against induced seizures: 30 min before electrical stimulation. An excerpt:
Although the zebrafish model has a high degree of genetic, physiological and pharmacological conservation^13, it is more distinct from humans than mammals. Therefore, we were interested to see if the observed antiseizure properties of azaspirofuran A and pseurotin A2 would translate to a rodent model. The mouse 6-Hz (44 mA) psychomotor seizure model was chosen, because it can detect compounds with novel antiseizure mechanisms and with potential against drug-resistant seizures [Barton et al. (2001) Epilepsy Res 47, 217-227; Wilcox et al. (2013) Epilepsia 54 S4, 24-34]. In this model drug-resistant focal impaired awareness seizures [Fisher et al. (2017) Epilepsia 58, 531-542], previously referred to as complex partial or psychomotor seizures [Holcomb and Dean (2011) Psychomotor Seizures, In Encyclopedia of Child Behavior and Development (Goldstein, S., and Naglieri, J. A., Eds.), pp 1191-1192, Springer US, Boston, Mass.], are induced by low frequency, long duration corneal electrical stimulation (6 Hz, 0.2 ms rectangular pulse width, 3 s duration, 44 mA) and are characterized by stun, twitching of the vibrissae, forelimb clonus, and Straub tail. […] Stimulated mice with a seizure duration shorter than 27 seconds were thus considered to be protected. […] Besides, this study provides another example of the translation of results from zebrafish to rodent seizure models.
Experimental procedure was described in Copmans et al. (2018) Neurochem. Int. 112, 124-133. before Buenafe et al. cited above; Orellana-Paucar cited above. In brief, NMRI mice (average weight 28 g, range 23-32 g) were randomly divided into control and treatment groups (n=5-10). 50 μL (injection volume was adjusted to the individual weight) of VHC (PEG200:DMSO:water; 0.25:0.25:0.5) or treatment (an ASD or test compound dissolved in VHC) was i.p. injected in mice and after 30 or 120 (in case of phenytoin, as reported by Barton et al. cited above) min psychomotor seizures were induced by low frequency, long duration corneal electrical stimulation (6 Hz, 0.2 ms rectangular pulse width, 3 s duration, 44 mA) using an ECT Unit 5780 (Ugo Basile, Comerio, Italy). Mice were manually restrained and a drop of ocular anesthetic (0.5% lidocaine) was applied to the corneas before stimulation. Following electrical current stimulation, the mouse was released in a transparent cage for behavioral observation, which was video-recorded. […] In addition, facial and mouth jerking as well as head nodding were observed occasionally. Mice displaying normal exploratory and locomotion behavior within a time period of 26 seconds were considered to be protected against the induced psychomotor seizures. Seizure durations were measured during the experiment by experienced researchers, familiar with the different seizure behaviors. In addition, seizure durations were determined by blinded video analysis to confirm or correct the initial observations. Data are expressed as mean±SD.

For assay [1], the system named is PTZ-induced seizures in zebrafish larvae. The assay is described as follows: Zebrafish PTZ seizure model, behavioral analysis. Type of assay: in vivo, Danio rerio. The conditions noted are these: lower concentrations (MTC/2, MTC/4), 2 hours incubation.

`CCc1ccc(C2=C(C)C(=O)C3(O2)C(=O)NC(OC)(C(=O)c2ccccc2)C3O)o1` (stereo not drawn) [azaspirofuran A]: in the assay on NMRI mice (40 mg/kg i.p.), the mean seizure duration is 24 s and the “mice protected against induced seizures” value was 5 out of 7. The antiseizure activity entry with NMRI mice (20 and 10 mg/kg i.p.) is on record as “no significant effects”. In addition, the “PTZ-induced seizure behavior, concentration-response retest” value in assay [1] is recorded as “No antiseizure activity”.

`CC/C=C\[C@H](O)[C@H](O)C1=C(C)C(=O)[C@]2(O1)C(=O)N[C@](OC)(C(=O)c1ccccc1)[C@H]2O` [pseurotin A2]: in the assay with NMRI mice (2.5 mg/kg i.p.), the antiseizure activity result was “inactive”. For the same compound, in the assay with NMRI mice (10 mg/kg i.p.), the mean seizure duration amounted to 27 s and the “mice protected against induced seizures” value is reported as 5 out of 6. Further, in the assay on NMRI mice (40 mg/kg i.p.), the mean seizure duration was 26 s and the “mice protected against induced seizures” value is 4 out of 7.
